Holding throughout (type): in vivo, Swiss-Webster mice
For one experiment, the system named is lymphocytes. The experiment in a line: Lymphocytes by complete blood count on day 8, dosing day 1, 3, 5. To be noted: mice, oral gavage, measured on day 8. How it is done:
(§1) To examine the effect of compounds and methods of the present invention on increasing white blood cells, the following studies were performed. In one series of experiments, male Swiss-Webster mice were administered various compounds of the present invention via oral gavage using a ball-tipped gavage needle. […] Animals were dosed once daily for 3 or 4 days. Six hours after the final dosing, 200 μl blood samples were collected and total white blood cell, neutrophil, and lymphocyte levels were measured by complete blood count (CBC) using a CellDyn cell analyzer (Abbott Laboratories).
(§2) In another series of experiments, male Swiss-Webster mice were administered various compounds (see Table 7 and Table 8) of the present invention via oral gavage using a ball-tipped gavage needle. […] Total WBC, neutrophil, lymphocyte, and monocyte levels were measured in mice as described above on day 8 following administration of compound on day 1, day 3, and day 5.

The subject of experiment [1] is total white blood cell (WBC). The experiment in a line: Total white blood cells by complete blood count on day 8, dosing day 1, 3, 5. Particulars: mice, oral gavage, measured on day 8.
For experiment [2], the system named is neutrophils. As to the kind of experiment: Neutrophils by complete blood count on day 8, dosing day 1, 3, 5. To be noted: mice, oral gavage, measured on day 8.
The subject of experiment [3] is total white blood cell (WBC). The experiment in a line: Total white blood cells by complete blood count on day 8, dosing day 1, 3, 5. Particulars: Mus musculus, 192 h, mice, oral gavage, measured on day 8, read-out: Total WBC % Increase Over Control; for change in vivo at 200 mg/kg: 200 mg/kg on day 1, day 3 and day 5; for change in vivo at 20 mg/kg: 20 mg/kg on day 1, day 3 and day 5. How it is done: as §1, §2

Experiment [4] concerns neutrophils. As to the kind of experiment: Neutrophils by complete blood count on day 8, dosing day 1, 3, 5. Particulars: Mus musculus, Neutrophil, 192 h, mice, oral gavage, measured on day 8, read-out: Neutrophils % Increase Over Control; for change in vivo at 200 mg/kg: 200 mg/kg on day 1, day 3 and day 5; for change in vivo at 20 mg/kg: 20 mg/kg on day 1, day 3 and day 5. The method, then: as §1, §2

The test system of the next experiment is monocytes. The experiment in a line: Monocytes by complete blood count on day 8, dosing day 1, 3, 5. To be noted: mice, oral gavage, measured on day 8.
Setting [5] is: Mus musculus, Lymphocyte, 192 h, 200 mg/kg on day 1, day 3 and day 5, read-out: Lymphocytes % Increase Over Control.
Setting [6] is: 200 mg/kg on day 1, day 3 and day 5.
Setting [7] is: Mus musculus, Monocyte, 192 h, 200 mg/kg on day 1, day 3 and day 5, read-out: Monocytes % Increase Over Control.
The mark [8] stands for this setting: Mus musculus, Lymphocyte, 192 h, 20 mg/kg on day 1, day 3 and day 5, read-out: Lymphocytes % Increase Over Control.
Setting [9] is: 20 mg/kg on day 1, day 3 and day 5.
The mark [10] stands for this setting: Mus musculus, Monocyte, 192 h, 20 mg/kg on day 1, day 3 and day 5, read-out: Monocytes % Increase Over Control.
Setting [11] is: 100 mg/kg on day 1, day 3 and day 5.
Where [12] appears, read: 60 mg/kg on day 1, day 3 and day 5.

Molecules are shown by their SMILES.

`C[C@@H](c1ccccc1)n1c(Cl)c(Cl)c2c(O)c(C(=O)NCC(=O)O)nc(C#N)c21` [Compound AL, {[(S)-2,3-Dichloro-7-cyano-4-hydroxy-1-(1-phenyl-ethyl)-1H-pyrrolo[2,3-c]pyridine-5-carbonyl]-amino}-acetic acid]: the change in vivo at 200 mg/kg in the experiment on lymphocytes (setting [5]) turned out to be 205%; in experiment [3] it was 207%; with neutrophils [4], 265%; with monocytes (setting [7]) it was 33%. Also, in the experiment on lymphocytes (setting [6]), the Lymphocytes is recorded as 15.3 10^3 cells/μl. For the same compound, in experiment [1] (setting [6]), the “Total WBC” value is reported as 18.2 10^3 cells/μl. For the same compound, the Neutrophils in the experiment on neutrophils [2] (setting [6]) is reported as 2.8 10^3 cells/μl. Further, the Monocytes in the experiment with monocytes (setting [6]) is 0.1 10^3 cells/μl.

For `CCCCCCn1cc(Cl)c2c(O)c(C(=O)NCC(=O)O)nc(C#N)c21` [Compound AS, [(3-Chloro-7-cyano-1-hexyl-4-hydroxy-1H-pyrrolo[2,3-c]pyridine-5-carbonyl)-amino]-acetic acid], the change in vivo at 20 mg/kg in the experiment with lymphocytes (setting [8]) is 24%; in experiment [3] it was 24%; with neutrophils [4] it was 42%; with monocytes (setting [10]) it was -8%. Also, the Lymphocytes in the experiment with lymphocytes (setting [9]) is on record as 6.0 10^3 cells/μl. Also, the “Total WBC” value in experiment [1] (setting [9]) is on record as 7.2 10^3 cells/μl. In addition, the Neutrophils in the experiment with neutrophils [2] (setting [9]) is 0.9 10^3 cells/μl. The Monocytes with monocytes (setting [9]) was 0.2 10^3 cells/μl.

For `N#Cc1nc(C(=O)NCC(=O)O)c(O)c2c(Cl)cn(Cc3ccccc3C(F)(F)F)c12` [Compound AT, {[3-Chloro-7-cyano-4-hydroxy-1-(2-trifluoromethyl-benzyl)-1H-pyrrolo[2,3-c]pyridine-5-carbonyl]-amino}-acetic acid], the change in vivo at 100 mg/kg in the experiment with lymphocytes (Mus musculus, Lymphocyte, 192 h, 100 mg/kg on day 1, day 3 and day 5, read-out: Lymphocytes % Increase Over Control) stood at 94%; in experiment [3] (setting [11]) it was 81%; with neutrophils [4] (setting [11]), 27%; with monocytes (Mus musculus, Monocyte, 192 h, 100 mg/kg on day 1, day 3 and day 5, read-out: Monocytes % Increase Over Control), 94%. In addition, the Lymphocytes in the experiment with lymphocytes (setting [11]) was 8.5 10^3 cells/μl. Moreover, in experiment [1] (setting [11]), the “Total WBC” value is recorded as 9.4 10^3 cells/μl. The Neutrophils with neutrophils [2] (setting [11]) is listed as 0.8 10^3 cells/μl. Further, the Monocytes in the experiment on monocytes (setting [11]) is given as 0.2 10^3 cells/μl.

As for `N#Cc1nc(C(=O)NCC(=O)O)c(O)c2ccn(Cc3ccc(-c4ccccc4)cc3)c12` [Compound AU, [(1-Biphenyl-4-ylmethyl-7-cyano-4-hydroxy-1H-pyrrolo[2,3-c]pyridine-5-carbonyl)-amino]-acetic acid], the change in vivo at 60 mg/kg in the experiment with lymphocytes (Mus musculus, Lymphocyte, 192 h, 60 mg/kg on day 1, day 3 and day 5, read-out: Lymphocytes % Increase Over Control) came to 332%; in experiment [3] (setting [12]) it was 290%; in the experiment on neutrophils [4] (setting [12]) it was 63%; in the experiment on monocytes (Mus musculus, Monocyte, 192 h, 60 mg/kg on day 1, day 3 and day 5, read-out: Monocytes % Increase Over Control) it was 118%. Besides, the Lymphocytes in the experiment on lymphocytes (setting [12]) was 21.0 10^3 cells/μl. Moreover, the “Total WBC” value in experiment [1] (setting [12]) was 22.6 10^3 cells/μl. In addition, in the experiment on neutrophils [2] (setting [12]), the Neutrophils was 1.1 10^3 cells/μl. Moreover, the Monocytes in the experiment with monocytes (setting [12]) was 0.3 10^3 cells/μl.

Consider `N#Cc1nc(C(=O)NCC(=O)O)c(O)c2c(Cl)cn(Cc3ccc(-c4ccccc4)cc3)c12` [Compound AW, [(1-Biphenyl-4-ylmethyl-3-chloro-7-cyano-4-hydroxy-1H-pyrrolo[2,3-c]pyridine-5-carbonyl)-amino]-acetic acid], for which the change in vivo at 200 mg/kg in the experiment with lymphocytes (setting [5]) was found to be 635%; in experiment [3], 616%; with neutrophils [4], 604%; with monocytes (setting [7]) it was 100%. Further, in the experiment on lymphocytes (setting [6]), the Lymphocytes is given as 34.1 10^3 cells/μl. For the same compound, in experiment [1] (setting [6]), the “Total WBC” value is given as 39.1 10^3 cells/μl. Also, the Neutrophils with neutrophils [2] (setting [6]) was 4.7 10^3 cells/μl. Moreover, the Monocytes in the experiment on monocytes (setting [6]) is listed as 0.2 10^3 cells/μl.

Take `Cc1cccc(Oc2cccc3c(C#N)nc(C(=O)NCC(=O)O)c(O)c23)c1` [Compound AY, {[1-Cyano-4-hydroxy-5-m-tolyloxy-isoquinoline-3-carbonyl]-amino}-acetic acid]: the change in vivo at 20 mg/kg in the experiment on lymphocytes (setting [8]) came to 21%; in experiment [3] it was 19%; in the experiment on neutrophils [4] it was 9%; in the experiment with monocytes (setting [10]) it was 8%. Besides, in the experiment with lymphocytes (setting [9]), the Lymphocytes is listed as 6.5 10^3 cells/μl. The “Total WBC” value in experiment [1] (setting [9]) is 7.5 10^3 cells/μl. Also, the Neutrophils with neutrophils [2] (setting [9]) is recorded as 0.7 10^3 cells/μl. The Monocytes in the experiment on monocytes (setting [9]) is listed as 0.2 10^3 cells/μl.

The values are drawn from patent publication US20110039879A1, “METHODS FOR INCREASING WHITE BLOOD CELLS” (FibroGen ,Inc., priority 2007, published 2011).
